Target: His-Tagged hOGA (human O-GlcNAcase) (Homo sapiens (Human), UniProt O60502)
Experiment: Human O-GlcNAcase enzyme inhibition assay (Example B01)
Type: biochemical
Settings: OGA enzyme inhibition assay; FL-GlcNAc substrate, 60 min, room temperature, pH 6.5
Procedure: Example B01: Human O-GlcNAcase Enzyme Inhibition Assay
5 μl of the appropriate concentration of a solution of inhibitor in McIlvaine's Buffer (pH 6.5) in 2% DMSO (for a dose response curve calculation) is added into each well of a 384-well plate (Greiner, 781900). Then, 20 nM of His-Tagged hOGA and 10 μM of FL-GlcNAc (Fluorescein mono-beta-D-(2-deoxy-2-N-acetyl) glucopyranoside; Marker Gene Technologies Inc, M1485) were added to the 384-well plate for a final volume of 20 μl. After incubation for 60 min at room temperature, the reaction was terminated by the addition of 10 μL of stop buffer (200 mM glycine, pH 10.75). The level of fluorescence (λexc 485 nm; (λemm 520 nm) was read on a PHERAstar machine. The amount of fluorescence measured was plotted against the concentration of inhibitor to produce a sigmoidal dose response curve to calculate an IC50. All individual data was corrected by subtraction of the background (Thiamet 3 uM=100% inhibition) whilst 0.5% DMSO was considered as the control value (no inhibition).

Sequence of His-Tagged hOGA (human O-GlcNAcase) (O60502 whole entry): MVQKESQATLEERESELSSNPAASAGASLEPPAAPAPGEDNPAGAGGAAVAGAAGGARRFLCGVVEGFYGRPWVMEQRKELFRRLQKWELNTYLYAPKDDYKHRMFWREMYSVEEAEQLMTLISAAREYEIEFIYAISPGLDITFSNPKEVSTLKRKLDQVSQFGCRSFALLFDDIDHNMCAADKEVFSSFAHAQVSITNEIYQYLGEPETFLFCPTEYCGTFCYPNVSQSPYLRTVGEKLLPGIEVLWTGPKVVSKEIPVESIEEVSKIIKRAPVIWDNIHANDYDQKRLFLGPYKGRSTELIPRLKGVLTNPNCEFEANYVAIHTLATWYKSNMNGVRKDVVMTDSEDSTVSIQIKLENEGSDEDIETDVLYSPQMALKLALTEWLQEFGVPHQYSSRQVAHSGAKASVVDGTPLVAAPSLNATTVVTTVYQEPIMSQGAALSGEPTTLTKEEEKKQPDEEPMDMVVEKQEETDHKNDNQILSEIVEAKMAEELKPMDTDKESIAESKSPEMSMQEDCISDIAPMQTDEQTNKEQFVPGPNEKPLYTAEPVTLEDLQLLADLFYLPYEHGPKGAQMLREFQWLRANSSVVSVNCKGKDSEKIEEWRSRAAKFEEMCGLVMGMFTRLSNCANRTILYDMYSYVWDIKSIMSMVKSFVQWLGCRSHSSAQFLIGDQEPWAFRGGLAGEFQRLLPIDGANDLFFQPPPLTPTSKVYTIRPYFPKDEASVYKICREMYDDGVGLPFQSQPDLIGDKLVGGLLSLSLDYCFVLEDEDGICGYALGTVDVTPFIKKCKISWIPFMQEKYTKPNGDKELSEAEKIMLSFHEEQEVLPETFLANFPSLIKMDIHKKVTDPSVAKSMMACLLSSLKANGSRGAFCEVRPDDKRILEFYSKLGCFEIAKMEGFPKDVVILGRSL

Q: Which IC50 does the source give for CC(c1ccc2c(c1)OCC2)N1CCC2(CC1)NC(=O)N(Cc1cncnc1)C2=O (racemic) [Example 4, 8-(1-(2,3-dihydrobenzofuran-6-yl)ethyl)-3-(pyrimidin-5-ylmethyl)-1,3,8-triazaspiro[4.5]decane-2,4-dione] here?
A: 0.05 to 0.2 µM

Q: CC(c1ccc2scnc2c1)N1CCC2(CC1)NC(=O)N(Cc1ccc(C(F)(F)F)nc1)C2=O (racemic) [Example 8] was tested. Which IC50 did it give?
A: 0.05 to 0.2 µM

Q: With CC(=O)Nc1ncc(CN2CCC3(CC2)NC(=O)N(Cc2ccc(C)nc2)C3=O)s1 (racemic) [IA3] as the molecule, how does the IC50 read?
A: 0.05 to 0.2 µM

Q: With CC(c1ccc2scnc2c1)N1CCC2(CC1)NC(=O)N(Cc1ccc(C#N)cc1)C2=O (racemic) [Example 22, 4-((8-(1-(benzo[d]thiazol-5-yl)ethyl)-2,4-dioxo-1,3,8-triazaspiro[4.5]decan-3-yl)methyl)benzonitrile] as the molecule, how does the IC50 read?
A: 0.05 to 0.2 µM

Q: With CC(c1ccc2scnc2c1)N1CCC2(CCN(c3ccc(C#N)cc3)C2=O)CC1 (racemic) [Example 27, 4-(8-(1-(benzo[d]thiazol-5-yl)ethyl)-1-oxo-2,8-diazaspiro[4.5]decan-2-yl)benzonitrile] as the molecule, how does the IC50 read?
A: 0.2 to 1 µM

Q: Which IC50 does the source give for CC(c1ccc2scnc2c1)N1CCC2(CC1)C(=O)N(Cc1ccc(C#N)cc1)c1ccccc12 (racemic) [Example 29, 4-((1′-(1-(benzo[d]thiazol-5-yl)ethyl)-2-oxospiro[indoline-3,4′-piperidin]-1-yl)methyl)benzonitrile] here?
A: 0.2 to 1 µM

Q: CSc1cnc(N2CC3(CCN(Cc4cnc(NC(C)=O)s4)CC3)NC2=O)nc1 (racemic) [IA6] was tested. Which IC50 did it give?
A: < 0.05 µM

Q: With CC(=O)Nc1ncc(CN2CCC3(CC2)NC(=O)N(Cc2cc(C)nc(C)c2)C3=O)s1 (racemic) [IA4] as the molecule, how does the IC50 read?
A: < 0.05 µM

Q: Which IC50 does the source give for CC(c1ccc2c(c1)OCC2)N1CCC2(CC1)C(=O)N(c1ccc(C#N)cc1)C(=O)N2C (racemic) [Example 76] here?
A: 1 to 10 µM

Q: With CC(c1ccc2c(c1)OCC2)N1CCC2(CC1)NC(=O)N(Cc1ccc(S(C)(=O)=O)cc1)C2=O (racemic) [Example 11] as the molecule, how does the IC50 read?
A: < 0.05 µM

Q: For CC(=O)Nc1ncc(CN2CCC3(CC2)CC(=O)N(c2ccc(C#N)cc2)C3)s1 (racemic) [IA7], which IC50 is on record?
A: 0.2 to 1 µM

Q: Which IC50 does the source give for CC(c1ccc2scnc2c1)N1CCC2(CC1)C(=O)N(c1ccc(C#N)cc1)c1ccccc12 (racemic) [Example 25, 4-(1′-(1-(benzo[d]thiazol-5-yl)ethyl)-2-oxospiro[indoline-3,4′-piperidin]-1-yl)benzonitrile] here?
A: 0.05 to 0.2 µM

Q: How did the IC50 turn out when CC(c1ccc2scnc2c1)N1CCC2(CC1)CN(c1ccc(F)cc1)C(=O)N2 (racemic) [Example 36, 8-(1-(benzo[d]thiazol-5-yl)ethyl)-3-(4-fluorophenyl)-1,3,8-triazaspiro[4.5]decan-2-one] was run?
A: 0.2 to 1 µM

Q: How did the IC50 turn out when CC(c1ccc2scnc2c1)N1CCC2(CC1)NC(=O)NC2=O (racemic) [Example 3, 8-(1-(benzo[d]thiazol-5-yl)ethyl)-1,3,8-triazaspiro[4.5]decane-2,4-dione] was run?
A: 1 to 10 µM

Q: CC(c1ccc2scnc2c1)N1CCC2(CC1)C(=O)N(Cc1ccc(C#N)cc1)C(=O)N2Cc1ccc(C#N)cc1 (racemic) [Example 23, 4,4′-((8-(1-(benzo[d]thiazol-5-yl)ethyl)-2,4-dioxo-1,3,8-triazaspiro[4.5]decane-1,3-diyl)bis(methylene))dibenzonitrile] was tested. Which IC50 did it give?
A: 0.2 to 1 µM

Q: With CC(c1ccc2c(c1)OCC2)N1CCC2(CC1)C(=O)N(Cc1ccc(C#N)cc1)C(=O)N2C (racemic) [Example 74] as the molecule, how does the IC50 read?
A: 1 to 10 µM

Q: How did the IC50 turn out when COCCN1C(=O)NC2(CCN(C(C)c3ccc4c(c3)OCC4)CC2)C1=O (racemic) [Example 6, 8-(1-(2,3-dihydrobenzofuran-6-yl)ethyl)-3-(2-methoxyethyl)-1,3,8-triazaspiro[4.5]decane-2,4-dione] was run?
A: 0.05 to 0.2 µM

Q: With CC(c1ccc2scnc2c1)N1CCC2(CC1)CCN(S(C)(=O)=O)C2 (racemic) [Example 31, 5-(1-(2-(methylsulfonyl)-2,8-diazaspiro[4.5]decan-8-yl)ethyl) benzo[d]thiazole] as the molecule, how does the IC50 read?
A: 1 to 10 µM

Q: Which IC50 does the source give for CC(c1ccc2scnc2c1)N1CCC2(CC1)CN(c1cccnn1)C(=O)N2 (racemic) [Example 59] here?
A: < 0.05 µM

Q: With Cc1cc(N2C(=O)NC3(CCN(C(C)c4ccc5scnc5c4)CC3)C2=O)cc(C)n1 (racemic) [Example 60] as the molecule, how does the IC50 read?
A: < 0.05 µM

Q: How did the IC50 turn out when CC(c1ccc2scnc2c1)N1CCC2(CC1)C(=O)N(Cc1ccc(S(C)(=O)=O)cc1)C(=O)N2Cc1ccc(S(C)(=O)=O)cc1 (racemic) [Example 24, 8-(1-(benzo[d]thiazol-5-yl)ethyl)-1,3-bis(4-(methylsulfonyl)benzyl)-1,3,8-triazaspiro[4.5]decane-2,4-dione] was run?
A: 0.2 to 1 µM

Q: CC(c1ccc2scnc2c1)N1CCC2(CC1)NC(=O)N(c1cncnc1)C2=O (racemic) [Example 62] was tested. Which IC50 did it give?
A: 0.05 to 0.2 µM

Q: With Cc1cc(N2CCC3(CCN(C(C)c4ccc5scnc5c4)CC3)C2)n2nccc2n1 (racemic) [Example 14, 5-(1-(2-(5-methylpyrazolo[1,5-a]pyrimidin-7-yl)-2,8-diazaspiro[4.5]decan-8-yl)ethyl)benzo[d]thiazole] as the molecule, how does the IC50 read?
A: 0.2 to 1 µM

Q: Cc1cc(CN2C(=O)NC3(CCN(C(C)c4ccc5scnc5c4)CC3)C2=O)cc(C)n1 (racemic) [Example 66] was tested. Which IC50 did it give?
A: 0.05 to 0.2 µM

Q: With CC(c1ccc2c(c1)OCC2)N1CCC2(CC1)CC(=O)N(c1ccc(C#N)cc1)C2 (racemic) [Example 19, 4-(8-(1-(2,3-dihydrobenzofuran-6-yl)ethyl)-3-oxo-2,8-diazaspiro[4.5]decan-2-yl)benzonitrile] as the molecule, how does the IC50 read?
A: 1 to 10 µM

Q: Which IC50 does the source give for CC(c1ccc2scnc2c1)N1CCC2(CC1)NC(=O)N(c1ccc(C#N)cc1)C2=O (racemic) [Example 13, 4-(8-(1-(benzo[d]thiazol-5-yl)ethyl)-2,4-dioxo-1,3,8-triazaspiro[4.5]decan-3-yl)benzonitrile] here?
A: 0.05 to 0.2 µM

Q: With CC(c1ccc2scnc2c1)N1CCC2(CC1)NC(=O)N(Cc1ccc(S(C)(=O)=O)cc1)C2=O (centres unmarked) [Example 10] as the molecule, how does the IC50 read?
A: 0.05 to 0.2 µM

Q: Which IC50 does the source give for CC(=O)Nc1ncc(CN2CCC3(CC2)NC(=O)N(Cc2ccc(C(F)(F)F)nc2)C3=O)s1 [IA1] here?
A: 0.05 to 0.2 µM

Q: Which IC50 does the source give for CC(c1ccc2c(c1)OCC2)N1CCC2(CC1)NC(=O)N(c1ccc(C#N)cc1)C2=O (racemic) [Example 12, 4-(8-(1-(2,3-dihydrobenzofuran-6-yl)ethyl)-2,4-dioxo-1,3,8-triazaspiro[4.5]decan-3-yl)benzonitrile] here?
A: < 0.05 µM

Q: Which IC50 does the source give for CC(c1ccc2scnc2c1)N1CCC2(CC1)CC(=O)N(c1ccc(C#N)cc1)C2 (racemic) [Example 15, 4-(8-(1-(benzo[d]thiazol-5-yl)ethyl)-3-oxo-2,8-diazaspiro[4.5]decan-2-yl)benzonitrile] here?
A: 1 to 10 µM

Q: How did the IC50 turn out when CC(c1ccc2c(c1)OCC2)N1CCC2(CC1)C(=O)Nc1ccccc12 (racemic) [Example 21, 1′-(1-(2,3-dihydrobenzofuran-6-yl)ethyl)spiro[indoline-3,4′-piperidin]-2-one] was run?
A: 0.2 to 1 µM

Q: CC(c1ccc2scnc2c1)N1CCC2(CC1)NC(=O)N(Cc1cncnc1)C2=O (racemic) [Example 5] was tested. Which IC50 did it give?
A: 0.05 to 0.2 µM

Q: How did the IC50 turn out when Cc1ccc(N2C(=O)NC3(CCN(C(C)c4ccc5scnc5c4)CC3)C2=O)cn1 (racemic) [Example 61] was run?
A: 0.05 to 0.2 µM

Q: How did the IC50 turn out when CC(c1ccc2scnc2c1)N1CCC2(CCN(Cc3ccc(C#N)cc3)C2=O)CC1 (racemic) [Example 26, 4-((8-(1-(benzo[d]thiazol-5-yl)ethyl)-1-oxo-2,8-diazaspiro[4.5]decan-2-yl)methyl)benzonitrile] was run?
A: 0.2 to 1 µM

Q: How did the IC50 turn out when CC(c1ccc2scnc2c1)N1CCC2(CC1)C(=O)N(Cc1ccc(C#N)cc1)C(=O)N2C (racemic) [Example 75] was run?
A: 1 to 10 µM

Reference: patent US11731972B2, “Spiro compounds as glycosidase inhibitors” (Asceneuron SA, priority 2018, dated 2023)
